According to patent US10321681B2, “Plant support formulation, vehicle for the delivery and translocation of phytologically beneficial substances and compositions containing same” (NORTH-WEST UNIVERSITY, priority 2006, dated 2019):

Tested on: maize
Test: Captan with Elementol R seed treatment, dry maize field trial
Type: in vivo
Settings: versus untreated seeds
Procedure: A genetically modified cultivar, supplied by a large seed producing company was used. One bag of treated seed was split and one portion of the seeds in the bag was treated with Captan, while another portion was treated with Captan mixed with Elementol R in the following manner. Captan is a broad-spectrum contact fungicide that has been used on corn seed since the 1950s. It is usually dyed pink and leaves a pink dust in the seed bag and planter box. It is very effective against a broad range of soil fungi. The prescribed amount of Captan was mixed directly with the seeds (Captan reference group). For the test group, seeds were mixed with a similar amount of Captan in 2% Elementol R. The seeds of both groups were briefly mixed or stirred with their individual treatment and then left to dry. Seeds were planted in blocks of 3 or 5 rows stretching the length of the maize field with untreated block s on both sides of each of the treatment groups in the North West Province, South Africa. Culturing was done according to general farming practices with no irrigation.
Plants of each of the untreated, the reference Captan group and the Elementol R/Captan group were collected by pulling up every fifth plant in a row. […]
The total plant mass, the root mass and the leaf mass of each plant were determined. […]

SMILES: O=C1C2CC=CCC2C(=O)N1SC(Cl)(Cl)Cl (centres unmarked) [Captan]
- root mass: only slightly enhanced root mass
- leaf mass / growth of the plant leaves (fifty plants per group): did not result in any change of growth of the plant leaves
